Like-named read-outs stand apart in the source and are kept apart here.
How the values were obtained:
[1] = target: T1, hAR (Homo sapiens, UniProt P10275); assay: co-transfection assay, AR agonist, CV-1 cells; format: cell-based; settings: for AR Agonist CV-1 Cells Efficacy (%): relative to maximum LUC production by reference agonist
T1 construct: expressed in transfected cells; host or cells: CV-1 cells (African green monkey kidney fibroblasts)
T1 sequence (P10275 1-920): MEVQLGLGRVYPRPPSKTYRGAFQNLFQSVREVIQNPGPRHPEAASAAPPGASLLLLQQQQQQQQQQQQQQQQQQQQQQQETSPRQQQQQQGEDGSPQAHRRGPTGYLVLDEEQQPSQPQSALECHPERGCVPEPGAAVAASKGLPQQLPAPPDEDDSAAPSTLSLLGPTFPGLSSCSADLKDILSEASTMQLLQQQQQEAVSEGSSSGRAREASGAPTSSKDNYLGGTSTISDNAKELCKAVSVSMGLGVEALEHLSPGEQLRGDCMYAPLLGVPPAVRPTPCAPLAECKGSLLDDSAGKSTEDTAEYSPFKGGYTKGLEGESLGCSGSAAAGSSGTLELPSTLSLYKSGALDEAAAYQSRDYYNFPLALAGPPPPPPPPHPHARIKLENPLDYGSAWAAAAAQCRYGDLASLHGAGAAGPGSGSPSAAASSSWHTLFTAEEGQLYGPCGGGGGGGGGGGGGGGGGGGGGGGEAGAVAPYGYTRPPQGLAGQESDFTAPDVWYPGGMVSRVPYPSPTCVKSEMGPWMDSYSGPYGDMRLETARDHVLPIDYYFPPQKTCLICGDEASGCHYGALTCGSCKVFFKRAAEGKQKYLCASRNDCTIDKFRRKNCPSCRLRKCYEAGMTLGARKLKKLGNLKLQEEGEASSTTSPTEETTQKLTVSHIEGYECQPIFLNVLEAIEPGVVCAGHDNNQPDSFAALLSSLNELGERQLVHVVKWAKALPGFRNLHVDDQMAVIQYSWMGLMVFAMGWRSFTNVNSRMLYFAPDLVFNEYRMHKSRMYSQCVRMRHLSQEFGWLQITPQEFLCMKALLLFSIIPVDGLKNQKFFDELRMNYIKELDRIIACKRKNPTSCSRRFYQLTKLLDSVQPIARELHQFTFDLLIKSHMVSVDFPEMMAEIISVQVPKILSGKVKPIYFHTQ

[2] = target: T1, hAR; assay: co-transfection assay, AR antagonist (in presence of DHT), CV-1 cells; format: cell-based; settings: for AR Antagonist CV-1 Cells Efficacy (%): maximal inhibition
[3] = AR Agonist CV-1 Cells Potency (nM), hAR in CV-1 cells

SMILES | EC50 [1] | AR Agonist CV-1 Cells Efficacy (%) ([1]; hAR in CV-1 cells) | IC50 [2] | AR Antagonist CV-1 Cells Efficacy (%) ([2]; hAR in CV-1 cells, DHT at EC50) | EC50 [1, 3] | IC50 ([2]; read-out: AR Antagonist CV-1 Cells Potency, hAR in CV-1 cells, DHT at EC50) | EC50 ([1]; AR Agonist CV-1 Cells Potency (nM))
O=c1[nH]c2cc3c(cc2c(C(F)(F)F)c1Cl)N(CC(F)(F)F)CCO3 [Compound 107, 8-Chloro-1,2,3,6-tetrahydro-1-(2,2,2-trifluoroethyl)-9-(trifluoromethyl)-7H-[1,4]oxazino[3,2-g]quinolin-7-one] | 26 nM | 92% | > 10000 nM | na (na = not active (i.e. efficacy of < 20 and potency of > 10,000 nM for the cotransfection assay, and Ki > 1000 nM for the binding assay)) | – | – | –
O=c1cc(C(F)(F)F)c2cc3c(cc2[nH]1)OCCN3 [Compound 120, 1,2,3,6-Tetrahydro-9-(trifluoromethyl)-7H-[1,4]oxazino[3,2-g]quinolin-7-one] | – | na (na = not active (i.e. efficacy of < 20 and potency of > 10,000 nM for the cotransfection assay, and Ki > 1000 nM for the binding assay)) | – | 69% | – | – | –
FC(F)(F)CN1CCOc2cc3[nH]c(=S)cc(C(F)(F)F)c3cc21 [Compound 110, 1,2,3,6-Tetrahydro-1-(2,2,2-trifluoroethyl)-9-(trifluoromethyl)-7H-[1,4]oxazino[3,2-g]quinolin-7-thione] | 44 nM | 90% | > 10000 nM | na (na = not active (i.e. efficacy of < 20 and potency of > 10,000 nM for the cotransfection assay, and Ki > 1000 nM for the binding assay)) | – | – | –
CC(C)CN1CCOc2cc3c(cc21)c(C(F)(F)F)cc(=O)n3C [Compound 113, 1,2,3,6-Tetrahydro-1-isobutyl-6-methyl-9-(trifluoromethyl)-7H-[1,4]oxazino[3,2-g]quinolin-7-one] | > 10000 nM | na (na = not active (i.e. efficacy of < 20 and potency of > 10,000 nM for the cotransfection assay, and Ki > 1000 nM for the binding assay)) | 61 nM | 78% | – | – | –
CC(=O)OCC1COc2cc3[nH]c(=O)cc(C(F)(F)F)c3cc2N1CC(F)(F)F (racemic) [Compound 131, (±)-1,2,3,6-Tetrahydro-2-(acetoxymethyl)-1-(2,2,2-trifluoroethyl)-9-(trifluoromethyl)-7H-[1,4]oxazino[3,2-g]quinolin-7-one] | 31 nM | 46% | > 10000 nM | na (na = not active (i.e. efficacy of < 20 and potency of > 10,000 nM for the cotransfection assay, and Ki > 1000 nM for the binding assay)) | – | – | –
CC[C@H]1Oc2cc3[nH]c(=O)cc(C(F)(F)F)c3cc2N(CC(F)(F)F)[C@H]1C (racemic) [Compound 129, (±)-cis-3-Ethyl-1,2,3,6-tetrahydro-2-methyl-1-(2,2,2-trifluoroethyl)-9-(trifluoromethyl)-7H-[1,4]oxazino[3,2-g]quinolin-7-one] | 1340 nM | 42% | 13 nM | 76% | – | – | –
O=c1cc(C(F)(F)F)c2cc3c(cc2[nH]1)OCC(CO)N3CC(F)(F)F (racemic) [Compound 130, (±)-1,2,3,6-Tetrahydro-2-(hydroxymethyl)-1-(2,2,2-trifluoroethyl)-9-(trifluoromethyl)-7H-[1,4]oxazino[3,2-g]quinolin-7-one] | – | 48% | – | na (na = not active (i.e. efficacy of < 20 and potency of > 10,000 nM for the cotransfection assay, and Ki > 1000 nM for the binding assay)) | – | – | –
CC1COc2cc3[nH]c(=O)cc(C(F)(F)F)c3cc2N1CC(F)(F)F (single isomer, unassigned; (-)) [Compound 125, (−)-1,2,3,6-Tetrahydro-2-methyl-1-(2,2,2-trifluoroethyl)-9-(trifluoromethyl)-7H-[1,4]oxazino[3,2-g]quinolin-7-one] | – | 74% | – | na (na = not active (i.e. efficacy of < 20 and potency of > 10,000 nM for the cotransfection assay, and Ki > 1000 nM for the binding assay)) | 0.7 nM | > 10000 nM | –
CC[C@@H]1Oc2cc3[nH]c(=O)cc(C(F)(F)F)c3cc2N(CC(F)(F)F)[C@H]1C (racemic) [Compound 128, (±)-trans-3-Ethyl-1,2,3,6-tetrahydro-2-methyl-1-(2,2,2-trifluoroethyl)-9-(trifluoromethyl)-7H-[1,4]oxazino[3,2-g]quinolin-7-one] | > 10000 nM | na (na = not active (i.e. efficacy of < 20 and potency of > 10,000 nM for the cotransfection assay, and Ki > 1000 nM for the binding assay)) | 1340 nM | 42% | – | – | –
O=c1cc(C(F)F)c2cc3c(cc2[nH]1)OCCN3CC(F)(F)F [Compound 108, 9-(Difluoromethyl)-1,2,3,6-tetrahydro-1-(2,2,2-trifluoroethyl)-7H-[1,4]oxazino[3,2-g]quinolin-7-one] | 14 nM | 80% | > 10000 nM | na (na = not active (i.e. efficacy of < 20 and potency of > 10,000 nM for the cotransfection assay, and Ki > 1000 nM for the binding assay)) | – | – | –
O=c1[nH]c2cc3c(cc2c(C(F)(F)F)c1F)N(CC(F)(F)F)CCO3 [Compound 106, 8-Fluoro-1,2,3,6-tetrahydro-1-(2,2,2-trifluoroethyl)-9-(trifluoromethyl)-7H-[1,4]oxazino[3,2-g]quinolin-7-one] | 4 nM | 80% | > 10000 nM | na (na = not active (i.e. efficacy of < 20 and potency of > 10,000 nM for the cotransfection assay, and Ki > 1000 nM for the binding assay)) | – | – | –
CCC1COc2cc3[nH]c(=O)cc(C(F)(F)F)c3cc2N1CC(F)(F)F (racemic) [Compound 145, (±)-2-Ethyl-1,2,3,6-tetrahydro-1-(2,2,2-trifluoroethyl)-9-(trifluoromethyl)-7H-[1,4]oxazino[3,2-g]quinolin-7-one] | – | 69% | – | 30% | – | – | –
COCC1COc2cc3[nH]c(=O)cc(C(F)(F)F)c3cc2N1CC(F)(F)F (racemic) [Compound 132, (±)-1,2,3,6-Tetrahydro-2-(methoxymethyl)-1-(2,2,2-trifluoroethyl)-9-(trifluoromethyl)-7H-[1,4]oxazino[3,2-g]quinolin-7-one] | – | 72% | > 10000 nM | na (na = not active (i.e. efficacy of < 20 and potency of > 10,000 nM for the cotransfection assay, and Ki > 1000 nM for the binding assay)) | – | – | 1.7 nM
Cn1c(=O)cc(C(F)(F)F)c2cc3c(cc21)OCCN3CC(F)(F)F [Compound 109, 1,2,3,6-Tetrahydro-6-methyl-1-(2,2,2-trifluoroethyl)-9-(trifluoromethyl)-7H-[1,4]oxazino[3,2-g]quinolin-7-one] | > 10000 nM | na (na = not active (i.e. efficacy of < 20 and potency of > 10,000 nM for the cotransfection assay, and Ki > 1000 nM for the binding assay)) | 24 nM | 57% | – | – | –
CC1COc2cc3[nH]c(=O)cc(C(F)(F)F)c3cc2N1CC(F)(F)F (single isomer, unassigned; (+)) [Compound 124, (+)-1,2,3,6-Tetrahydro-2-methyl-1-(2,2,2-trifluoroethyl)-9-(trifluoromethyl)-7H-[1,4]oxazino[3,2-g]quinolin-7-one] | – | 54% | > 10000 nM | na (na = not active (i.e. efficacy of < 20 and potency of > 10,000 nM for the cotransfection assay, and Ki > 1000 nM for the binding assay)) | 3.6 nM | – | –
